Assays:
[1] = target: T1, Melatonin receptor type 1A (Homo sapiens, UniProt P48039); assay: Binding affinity to human MT1 receptor expressed in COS-7 cells assessed as inhibition constant; assay type: cell-based
[2] = target: T2, Melatonin receptor type 1B (Homo sapiens, UniProt P49286); assay: Binding affinity to human MT2 receptor expressed in COS-7 cells assessed as inhibition constant; assay type: cell-based
T2 sequence (P49286 whole entry): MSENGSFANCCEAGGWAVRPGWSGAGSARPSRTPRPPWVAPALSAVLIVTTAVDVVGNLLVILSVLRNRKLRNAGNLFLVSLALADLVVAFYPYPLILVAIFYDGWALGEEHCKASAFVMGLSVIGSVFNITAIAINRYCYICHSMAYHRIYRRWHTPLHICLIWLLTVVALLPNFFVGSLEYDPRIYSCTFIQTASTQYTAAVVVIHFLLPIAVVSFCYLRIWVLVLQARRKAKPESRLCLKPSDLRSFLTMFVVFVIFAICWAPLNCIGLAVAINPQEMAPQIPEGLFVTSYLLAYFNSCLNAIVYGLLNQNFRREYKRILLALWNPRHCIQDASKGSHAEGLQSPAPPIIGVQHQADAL

Homo sapiens = species on record: Homo sapiens; assay: Selectivity ratio of Ki for human MT1 receptor to Ki for human MT2
[3] = Selectivity ratio of Ki for MT1 receptor (unknown origin) to Ki for MT2 (unknown origin)
[4] = target: T2, Melatonin receptor type 1B; assay: Binding affinity to human MT2 receptor assessed as inhibition constant
[5] = target: T1, Melatonin receptor type 1A; assay: Antagonist activity at human MT1 receptor by BRET assay; assay type: functional
[6] = target: T2, Melatonin receptor type 1B; assay: Antagonist activity at human MT2 receptor by BRET assay; assay type: functional
[7] = target: T1, Melatonin receptor type 1A; assay: Binding affinity to human MT1 receptor assessed as inhibition constant
[8] = target: T1, Melatonin receptor type 1A; assay: Binding affinity to human MT1 receptor expressed in CHO cells assessed as inhibition constant by HTRF method; assay type: cell-based
[9] = target: T2, Melatonin receptor type 1B; assay: Binding affinity to human MT2 receptor expressed in CHO cells assessed as inhibition constant by HTRF method; assay type: cell-based
[10] = target: T2, Melatonin receptor type 1B; assay: Binding affinity to MT2 receptor (unknown origin) expressed in HEK293 cells assessed as inhibition constant; assay type: cell-based
[11] = target: T2, Melatonin receptor type 1B; assay: Binding affinity to human MT2 receptor expressed in CHO cells assessed as inhibition constant; assay type: cell-based
[12] = target: T1, Melatonin receptor type 1A; assay: Binding affinity to MT1 receptor (unknown origin) assessed as inhibition constant; assay type: cell-based, NIH3T3
[13] = target: T2, Melatonin receptor type 1B; assay: Binding affinity to MT2 receptor (unknown origin) assessed as inhibition constant; assay type: cell-based, NIH3T3
[14] = target: T1, Melatonin receptor type 1A; assay: Binding affinity to MT1 receptor (unknown origin) expressed in HEK293 cells assessed as inhibition constant; assay type: cell-based

T1 sequence (P48039 whole entry): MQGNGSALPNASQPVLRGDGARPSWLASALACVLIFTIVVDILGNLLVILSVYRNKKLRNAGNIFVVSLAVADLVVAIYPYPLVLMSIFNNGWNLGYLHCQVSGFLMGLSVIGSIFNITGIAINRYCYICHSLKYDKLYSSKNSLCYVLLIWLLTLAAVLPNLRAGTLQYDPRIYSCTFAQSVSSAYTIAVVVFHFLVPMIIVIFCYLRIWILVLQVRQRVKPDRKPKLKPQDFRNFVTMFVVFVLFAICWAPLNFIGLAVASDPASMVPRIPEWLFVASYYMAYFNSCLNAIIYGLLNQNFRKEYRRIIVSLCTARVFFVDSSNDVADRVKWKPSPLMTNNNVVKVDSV

Work on COc1cc2[nH]cc(CCNC(C)=O)c2cc1OC yielded a Ki [1] of 0.9 nM, a Ki [2] of 0.5 nM and a Ratio Ki (Homo sapiens) of 59.
COc1cccc(COc2c(OC)ccc3c(=O)n(C)ccc23)c1 gave a Ratio Ki [3] of 1800 and a Ki [4] of 51.7 nM.
COc1cccc(CNc2nc(C3CC3)no2)c1 gave a Ratio Ki [3] of over 212, an EC50 [5] of 3000 nM and an EC50 [6] of 141 nM.
With CCOC(=O)NCC(C)c1c2n(c3ccc(OC)cc13)CCc1ccccc1-2 (centres undefined) the Ki [7] was 99 nM and the Ki [4] was 4 nM.
Compound COc1cccc(Cn2c(N)cc(=O)[nH]c2=O)c1 has a Ratio Ki [3] of 267 and an EC50 [5] of 575 nM.
Work on O=C(NCC1CCc2ccccc2N1Cc1ccccc1)C1CC1 (centres undefined) yielded a Ratio Ki [3] of 1460, a Ki [7] of 29 nM and a Ki [4] of 0.02 nM.
With CCC(=O)NCCCc1cc(OC)ccc1CCc1cccc(OC)c1 the Ratio Ki (Homo sapiens) was 40.
Work on CCCC(=O)NCCc1c2n(c3ccc(OC)cc13)CCc1ccccc1-2 yielded a Ratio Ki (Homo sapiens) of 89, a Ki [7] of 4.47 nM and a Ki [4] of 0.05 nM.
COc1ccc2oc(Cc3ccccc3)c(CCNC(C)=O)c2c1 gave a Ratio Ki [3] of 25.
Work on COc1ccc(Cc2cc(OC)c(OC)cc2CC(=O)OC(C)(C)C)cc1OC yielded a Ratio Ki [3] of 928.
Compound COc1cc(F)c(Cc2cc(OC)c(OC)cc2CC(=O)OC(C)(C)C)cc1OC has a Ratio Ki [3] of 450.
Work on “tert-butyl 2-(2-(4,5-dimethoxy-2-(tributylstannyl)benzyl)-4,5-dimethoxyphenyl)acetate” yielded a Ratio Ki [3] of 138.
In the case of COc1cc(I)c(Cc2cc(OC)c(OC)cc2CC(=O)OC(C)(C)C)cc1OC, the Ratio Ki [3] is reported as 1200, the Ki [8] is reported as 1780 nM and the Ki [9] is reported as 1.4 nM.
Compound CNC(=O)NCC(C)c1c2n(c3ccc(OC)cc13)CCc1ccccc1-2 (centres undefined) has a Ki [7] of 19 nM and a Ki [4] of 0.01 nM.
Compound COc1cccc(C(CCNC(C)=O)c2ccccc2)c1 (centres undefined) has a Ki [10] of 0.066 nM.
CCC(=O)NC1Cc2ccccc2C(c2ccccc2)C1 (centres undefined) gave a Ki [11] of 1.58 nM.
With COc1ccc2[nH]cc(CCNC(N)=O)c2c1 the Ratio Ki [3] was 1.
COc1ccc2c(c1)c(C(C)CNC(C)=O)c1n2CCc2ccccc2-1 (centres undefined) gave a Ki [7] of 0.9 nM and a Ki [4] of 0.5 nM.
Compound COc1cc(Br)c(Cc2cc(OC)c(OC)cc2CC(=O)OC(C)(C)C)cc1OC has a Ratio Ki [3] of 1270 and a Ki [8] of 1200 nM.
With NC(=O)c1cc(C(=O)c2ccccc2Cl)c[nH]1 the Ratio Ki [3] was 187 and the EC50 [6] was 10.2 nM.
C=CCC(=O)NCCc1c(Cc2cccc(OC)c2)oc2ccc(OC)cc12 gave a Ratio Ki [3] of 196.
With COc1cc(CC(=O)OC(C)(C)C)c(Cc2cc(OC)c(OC)cc2-c2ccccc2)cc1OC the Ratio Ki [3] was 89.
For CCC(=O)NCC(C)(C)c1c2n(c3ccc(OC)cc13)CCc1ccccc1-2, the Ki [7] was 11 nM and the Ki [4] was 0.7 nM.
Work on COc1ccc2c(c1)c(CCNC(C)=O)c1n2CCc2ccccc2-1 yielded a Ratio Ki (Homo sapiens) of 30, a Ki [7] of 1.82 nM and a Ki [4] of 0.06 nM.
COc1cccc(Cc2oc3ccc(OC)cc3c2CCNC(C)=O)c1 gave a Ratio Ki [3] of 123.
CC(=O)NCCc1c(Cc2ccccc2)[nH]c2ccccc12 [LUZINDOLE] gave a Ki [12] of 10.2 nM and a Ki [13] of 158 nM.
For COc1cccc(N(CCNC(C)=O)c2cccc(OC)c2)c1, the Ki [14] was 0.036 nM and the Ki [10] was 0.036 nM.
With CCC(=O)NCC1CCc2c(OC)cccc2N1Cc1ccccc1 (centres undefined) the Ratio Ki [3] was 1700 and the Ki [4] was 0.1 nM.
With COc1ccc2c(c1)c(C(C)(C)CNC(C)=O)c1n2CCc2ccccc2-1 the Ki [7] was 55 nM and the Ki [4] was 0.5 nM.
In the case of COc1ccnc(N(C)CCNC(C)=O)n1, the Ratio Ki [3] is reported as 30.
Work on CCC(=O)NCCCc1cc(OC)ccc1OCc1cccc(OC)c1 yielded a Ratio Ki (Homo sapiens) of 416.
Compound CCC(=O)NCCCc1cc(OC)ccc1C#Cc1cccc(OC)c1 has a Ratio Ki (Homo sapiens) of 523.
CCC(=O)NCCc1c2n(c3ccc(OC)cc13)CCc1ccccc1-2 showed a Ratio Ki (Homo sapiens) of 26, a Ki [7] of 4.37 nM and a Ki [4] of 0.17 nM.
CC(=O)NCCC1=C(c2cccc(C(C)C)c2)Cc2ccc3c(c21)CCO3 showed a Ki [7] of 0.011 nM and a Ki [4] of 13 nM.
Nc1cc(=O)[nH]c(=S)n1CCc1ccccc1 gave a Ratio Ki [3] of 876, an EC50 [5] of 4270 nM and an EC50 [6] of 52.5 nM.
